Laboratory results: article PMC7200681, “The calcitonin-like system is an ancient regulatory system of biomineralization” (Scientific Reports, 2020)
Bridge positions count the residues as written; N and C are the ends.

Test system: mussel mantle cells
Assay: Calcium uptake by isolated mantle cells (calcein fluorescence)
Assay type: cell-based, Mytilus galloprovincialis
Settings: CALCIIa 10 μM, 4 hours, calcein 50 mM
Protocol: Figure 7 Effect of the mussel calcitonin-like peptide on (A) calcium (ppm) concentration in the mantle edge and (B) calcium uptake by mantle cells of the Mediterranean mussel. (A) The quantity of calcium (ppm) present in the mantle edge after mussel CALCIIa peptide incubation was measured using a Microwave Plasma-Atomic Emission Spectrometer (MP-AES, Agilent) at 393.366 nm. A standard curve for calcium was performed before analysing the samples. In vitro mantle assays with CALCIIa peptide and with ouabain and control (culture medium and mantle) were repeated on at least 3 independent occasions. […] An increase in cellular fluorescence represents an increase in calcium uptake. Fluorescence of the CALCIIa peptide stimulated cells was 1.9 times higher than the control. The average mantle cell size was 3–4 μm and fluorescent images were taken using a Leica DM IL microscope coupled to a Visicam HDMI 6 digital camera and photographs were analysed using ImageJ software (v. 1.52a) to calculate the fluorescence intensity and for image overlay. […]
Mantle cells were isolated from Mediterranean mussel mantle edge explants of the posterior region and were incubated with the CALCIIa peptide. […] Photographs were analysed for image overlay and to calculate fluorescence intensity (corrected total cell fluorescence, CTCF) using ImageJ software (v. 1.52a). […]

H-CTWGGGMSDEMCSTVDIDEIQRSFQVIHDRNSP-NH2 (disulfide 1-12 (inferred)) [CALCIIa, Mediterranean mussel calcitonin-like mature peptide, 33 aa, synthesized with disulphide bond and C-terminal amidation]
Increase in intensity of fluorescent calcium staining versus control mantle cells (ImageJ CTCF): 1.9 times
Mean corrected total cell fluorescence (CTCF) of mantle cells (control = 1405154): 2654581
